Values after ≈ are worked out from the molar mass of the structure shown.
Experiments:
[1] = test system: Staphylococcus aureus; experiment: Minimum inhibitory concentration against Quinolone Resistant Staphylococcus aureus LF11C128B Strain.; format: functional
[2] = test system: Staphylococcus hominis; experiment: Minimum inhibitory concentration against Quinolone sensitive Staphylococcus hominis IP8203 Strain.; format: functional

Row | Compound | MIC [1] [µg/mL] | MIC [2] [µg/mL]
1 | Cn1cc(C(=O)O)c(=O)c2cc3cc(F)c(N4CCN(Cc5ccc(F)cc5)CC4)cc3nc21 | 1 (≈ 2.15 µM) | 0.5 (≈ 1.08 µM)
2 | Cn1cc(C(=O)O)c(=O)c2cc3cc(F)c(NC4CCCCC4)cc3nc21 | 1 (≈ 2.71 µM) | 1 (≈ 2.71 µM)
3 | C[N+](C)(C)CCO.Cn1cc(C(=O)[O-])c(=O)c2cc3cc(F)c(N4CCN(c5ccc(F)cc5)CC4)cc3nc21 | 0.5 | 0.25
4 | CSCc1cccc(N2CCN(c3cc4nc5c(cc4cc3F)c(=O)c(C(=O)O)cn5C)CC2)c1 | 4 (≈ 8.12 µM) | 4 (≈ 8.12 µM)
5 | CCn1cc(C(=O)O)c(=O)c2cc(F)c(N3CCN(C)CC3)cc21 [PEFLOXACIN] | – | 0.5 (≈ 1.5 µM)
6 | C/C(=C\C(=O)OCCCCCCCCC(=O)[O-])C[C@@H]1OC[C@H](C[C@@H]2O[C@H]2[C@@H](C)[C@H](C)O)[C@@H](O)[C@H]1O.C/C(=C\C(=O)OCCCCCCCCC(=O)[O-])C[C@@H]1OC[C@H](C[C@@H]2O[C@H]2[C@@H](C)[C@H](C)O)[C@@H](O)[C@H]1O.[Ca+2] | 0.5 | 0.5
7 | Cn1cc(C(=O)O)c(=O)c2cc3cc(F)c(N4CCCCCCC4)cc3nc21 | 1 (≈ 2.61 µM) | 1 (≈ 2.61 µM)

Source: ChEMBL document CHEMBL1134013, “Synthesis and biological evaluation of benzo[b]naphthyridones, a series of new topical antibacterial agents” (2001)
